The target in the experiment is T1, human MGL from HeLa cells (Homo sapiens, UniProt Q99685).
T1 construct: combining endogenously expressed MGL from HeLa cells with test compounds; endogenous in cells; host or cells: HeLa cells / cell homogenates
T1 sequence (Q99685 1-303): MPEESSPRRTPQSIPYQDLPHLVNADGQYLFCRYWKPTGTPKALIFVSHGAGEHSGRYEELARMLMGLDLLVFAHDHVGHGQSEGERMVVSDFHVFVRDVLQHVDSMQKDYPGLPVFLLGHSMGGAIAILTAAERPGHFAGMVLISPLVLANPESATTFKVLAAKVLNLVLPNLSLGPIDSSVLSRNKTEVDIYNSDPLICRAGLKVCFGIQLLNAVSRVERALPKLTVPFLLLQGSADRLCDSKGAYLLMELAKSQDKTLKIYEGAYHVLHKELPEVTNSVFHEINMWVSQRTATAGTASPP
Nature of the experiment: In vitro MGL activity assay: [glycerol-1,3-3H]-oleyl glycerol cleavage by MGL from HeLa cells. The class given is biochemical. Particulars: 300 nM [Glycerol-1,3-3H]-oleyl glycerol, one hour. From the text: MGL is the predominant hydrolase in HeLa cells/cell homogenates.
`Cc1cc(F)cc(-c2c3c(nn2C)[C@H](C)N(C(=O)c2ccc4ncccc4c2)CC3)c1` [Example 511, [(7S)-3-(3-Fluoro-5-methyl-phenyl)-2,7-dimethyl-5,7-dihydro-4H-pyrazolo[3,4-c]pyridin-6-yl]-(6-quinolyl)methanone] yielded an IC50 of 0.00658 µM.
In turn, `COc1ccc(-c2c3c(nn2C)[C@H](C)N(C(=O)c2ccc4ncccc4c2)CC3)cc1C` [Example 512, [(7S)-3-(4-Methoxy-3-methyl-phenyl)-2,7-dimethyl-5,7-dihydro-4H-pyrazolo[3,4-c]pyridin-6-yl]-(6-quinolyl)methanone] showed an IC50 of 0.185 µM.
The compound `COc1cc(Cl)cc(-c2c3c(nn2C)[C@H](C)N(C(=O)c2ccc4ncccc4c2)CC3)c1` [Example 513, [(7S)-3-(3-Chloro-5-methoxy-phenyl)-2,7-dimethyl-5,7-dihydro-4H-pyrazolo[3,4-c]pyridin-6-yl]-(6-quinolyl)methanone] returned an IC50 of 0.0105 µM.
The figure for `C[C@H]1c2nn(C)c(-c3ccc(F)c(F)c3F)c2CCN1C(=O)c1ccc2ncccc2c1` [Example 515, [(7S)-2,7-Dimethyl-3-(2,3,4-trifluorophenyl)-5,7-dihydro-4H-pyrazolo[3,4-c]pyridin-6-yl]-(6-quinolyl)methanone] is 0.0522 µM.
In turn, `C[C@H]1c2nn(C)c(-c3cc(F)c(F)c(F)c3)c2CCN1C(=O)c1ccc2c(ccc[n+]2[O-])c1` [Example 516, [(7S)-2,7-Dimethyl-3-(3,4,5-trifluorophenyl)-5,7-dihydro-4H-pyrazolo[3,4-c]pyridin-6-yl]-(1-oxidoquinolin-1-ium-6-yl)methanone] came in with an IC50 of 0.141 µM.
Then `C[C@H]1c2nn(C)c(-c3cc(F)c(F)c(F)c3)c2CCN1C(=O)c1ccc2nc(O)ccc2c1` [Example 517, [(7S)-2,7-Dimethyl-3-(3,4,5-trifluorophenyl)-5,7-dihydro-4H-pyrazolo[3,4-c]pyridin-6-yl]-(2-hydroxy-6-quinolyl)methanone], with 0.0807 µM; and `Cc1ccc(-c2c3c(nn2C)[C@H](C)N(C(=O)c2ccc4ncccc4c2)CC3)cn1` [Example 519, [(7S)-2,7-Dimethyl-3-(6-methyl-3-pyridyl)-5,7-dihydro-4H-pyrazolo[3,4-c]pyridin-6-yl]-(6-quinolyl)methanone], with 1.45 µM; and `Cc1cc(-c2c3c(nn2C)[C@H](C)N(C(=O)c2ccc4ncccc4c2)CC3)ccn1` [Example 520, [(7S)-2,7-Dimethyl-3-(2-methyl-4-pyridyl)-5,7-dihydro-4H-pyrazolo[3,4-c]pyridin-6-yl]-(6-quinolyl)methanone], with 1.11 µM.
Compound `C[C@H]1c2nn(C)c(-c3ccc(C(F)F)nc3)c2CCN1C(=O)c1ccc2ncccc2c1` [Example 521, [(7S)-3-[6-(Difluoromethyl)-3-pyridyl]-2,7-dimethyl-5,7-dihydro-4H-pyrazolo[3,4-c]pyridin-6-yl]-(6-quinolyl)methanone] came in with an IC50 of 0.766 µM.
Then `C[C@H]1c2nn(C)c(-c3ccc(C(F)(F)F)nc3)c2CCN1C(=O)c1ccc2ncccc2c1` [Example 522, [(7S)-2,7-Dimethyl-3-[6-(trifluoromethyl)-3-pyridyl]-5,7-dihydro-4H-pyrazolo[3,4-c]pyridin-6-yl]-(6-quinolyl)methanone], with 0.267 µM; and `C[C@H]1c2nn(C)c(-c3ccnc(C(F)(F)F)c3)c2CCN1C(=O)c1ccc2ncccc2c1` [Example 523, [(7S)-2,7-Dimethyl-3-[2-(trifluoromethyl)-4-pyridyl]-5,7-dihydro-4H-pyrazolo[3,4-c]pyridin-6-yl]-(6-quinolyl)methanone], with 0.417 µM; and `C[C@H]1c2nn(C)c(-c3csc(C(F)(F)F)c3)c2CCN1C(=O)c1ccc2ncccc2c1` [Example 524, [(7S)-2,7-Dimethyl-3-[5-(trifluoromethyl)-3-thienyl]-5,7-dihydro-4H-pyrazolo[3,4-c]pyridin-6-yl]-(6-quinolyl)methanone], with 0.00723 µM.

As a reminder, the IC50 is the concentration at which inhibition is half-maximal.
